In patent US6403554B2, “Polyunsaturated fatty acid derivatives and their use” (Ardenia Investments Ltd., priority 1998, dated 2002):

Experiments:
[1] = system: antibody-forming cells (AFC) in the spleen; experiment: Influence of human AFP/compound complex and compound alone on humoral immune response, C57B1/6 male mice; type: in vivo; settings: compound alone, 5th day
Protocol: The influence of complexes of AFP with one of the title compounds 1-4, 1a-4a, 5-20 as well as their basic components on humoral immune response was estimated by counting the quantity of antibody-forming cells (AFC) in the mice spleen.
0.15 ml of AFP/Compound 3 complex was administered intravenously to 6 mice males of C57B1/6 line (weight 18-22 g) in the dose of […] of AFP and 45.5 μg of compound 3 per capita. Simultaneously suspension of 5·10^7 sheep erythrocytes was injected intraperitoneally (0.2 ml per capita). In the group with compound 3 mice were injected intravenously by one in the dose of 45.5 μg. Animals of group with AFP received 9 μg of AFP. Mice of control group were injected intravenously with equal volume of saline. Complex AFP/Compound 3 effect on humoral immune response was analyzed by counting the quantity of AFC in the spleen according to Cunningham (per 10^6 spleen cells and per spleen).
0.15 ml of AFP/Compound 2a complex (1:100) was administered intravenously to 6 mice males of C57B1/6 line (weight 18-22 g) in the dose of 9 μg of AFP and 45.5 μg of compound 2a per capita. Simultaneously, a suspension of 5·10^7 sheep erythrocytes was injected intraperitoneally (0.2 ml per capita). In the group with compound 2a mice were injected intravenously by one in the dose of 45.5 μg. Animals of group with AFP received 9 μg of AFP. Mice in the control group were injected intravenously with an equal volume of saline. The effect of the AFP/Compound 2a complex on humoral immune response was analyzed by counting the quantity of AFC in the spleen according to Cunningham (per 10^6 spleen cells and per spleen).
(§1) 0.15 ml of AFP/Compound 10 complex (1:200) was administered intravenously to 6 male mice of C57B1/6 line (weight 18-22 g) in the dose of 9 μg of AFP and 91 μg of compound 10 per capita. Simultaneously, a suspension of 5·10^7 sheep erythrocytes was injected intraperitoneally (0.2 ml per capita). In the group receiving compound 10 mice were injected intravenously by one in the dose of 91 μg. Animals in the group with AFP received 9 μg of AFP. Micein the control group were injected intravenously with an equal volume of saline. The effect of the AFP/Compound 10 complex on humoral immune response was analyzed by counting the quantity of AFC in the spleen according to Cunningham (per 10^6 spleen cells and per spleen).
as §1, with “AFP/Compound 14” for “AFP/Compound 10”, “compound 14” for “compound 10”, “group with” for “group receiving”, “Animals of” for “Animals in the”, “AFP. Mice in” for “AFP. Micein”

[2] = system: antibody-forming cells (AFC) in the spleen; experiment: Influence of compound on humoral immune response to sheep erythrocytes, C57B1/6 female mice (AFC in spleen, hemagglutinins); type: in vivo; settings: for Amount of antibody-forming cells per 10^6 spleen cells / Amount of antibody-forming cells per spleen / Effect on relative amount of AFC (per 10^6 spleen cells) / Effect on total AFC amount (per spleen): 5th day; for Amount of antibody-forming cells per 10^6 spleen cells / Amount of antibody-forming cells per spleen: M ± SEM; for Effect on relative amount of AFC (per 10^6 spleen cells) / Effect on total AFC amount (per spleen) / Effect on hemagglutinin titers: vs control; for Spleen index: with SRBC i.p.
Protocol: The increase was calculated as compared with the amount of cells in the animals immunised only with sheep erythrocytes.
0.15 ml of compound 10 was administered intravenously to 6 mice females of CS7B1/6 line (weight 18-22 g) in doses of 45.5, 91 and 136.5 μg of compound 10 per capita for each testing group according to the dose. Simultaneously, a suspension of 5·10^7 sheep erythrocytes was injected intraperitoneally (0.2 ml per capita). Mice in the control group were injected intravenously with equal volume of saline. The effects of compound 10 on humoral immune response were analyzed both by counting the quantity of AFC in the spleen according to Cunningham (per 10^6 spleen cells and per spleen) and estimating the titers of hemagglutining antibodies in serum of the animals (Cunningham A. J., Nature, 1965, Vol.207, No 5001. P.1106-1107), while the titers of hemagglutinating antibodies were evaluated according to litterature (Evans J. et al., Cell, 1974; Vol 3., p.153-158, Feizi T., Menger E., Transfusion, 1970, Vol. 10, p.33-35,).
(§2) 0.15 ml of compound 11 was administered intravenously to 6 female mice of the C57B1/6 line (weight 18-22 g) in doses of 45.5, 91 and 136.5 μg of compound 11 per capita for each testing group according to the dose. Simultaneously, a suspension of 5·10^7 sheep erytrocytes was injected intraperitoneally (0.2 ml per capita). Mice in the control group were injected intravenously with an equal volume of saline. The effects of compound 11 on humoral immune response was analysed both by counting the quantity of AFC in the spleen according to Cunningham (per 10^6 spleen cells and per spleen) and estimating the titers of hemagglutining antibodies in serum of the animals.
as §2, with “12” for “11”, “erythrocytes” for “erytrocytes”, “analyzed” for “analysed”
as §2, with “compound 8” for “compound 11”, “sheep erythrocytes” for “sheep erytrocytes”, “Mice of” for “Mice in”, “response were analyzed” for “response was analysed”
0.15 ml of compound 3 was administered intravenously to 6 female mice of the C57B1/6 line (weight 18-22 g) in doses of 45.5, 91 and 136.5 μg of compound 3 per capita for each testing group according to the dose. Simultaneously, a suspension of 5·10^7 sheep erytrocytes was injected intraperitoneally (0.2 ml per capita). Mice of the control group were injected intravenously with equal volume of saline.

SMILES	relative amount of AFC ([1]; 91 μg/mouse i.v.)	total AFC amount ([1]; 91 μg/mouse i.v.)	Amount of antibody-forming cells per 10^6 spleen cells ([2]; 45.5 μg/mouse, i.v.)	Amount of antibody-forming cells per spleen ([2]; 45.5 μg/mouse, i.v.)	Effect on relative amount of AFC (per 10^6 spleen cells) ([2]; 45.5 μg/mouse, i.v.)	Effect on total AFC amount (per spleen) ([2]; 45.5 μg/mouse, i.v.)	Effect on hemagglutinin titers ([2]; 45.5 μg/mouse, i.v.)	Spleen index ([2]; 45.5 μg/mouse, i.v.)	Amount of antibody-forming cells per 10^6 spleen cells ([2]; 91 μg/mouse, i.v.)	Amount of antibody-forming cells per spleen ([2]; 91 μg/mouse, i.v.)	Effect on relative amount of AFC (per 10^6 spleen cells) ([2]; 91 μg/mouse, i.v.)	Effect on total AFC amount (per spleen) ([2]; 91 μg/mouse, i.v.)	Effect on hemagglutinin titers ([2]; 91 μg/mouse, i.v.)	Spleen index ([2]; 91 μg/mouse, i.v.)	Amount of antibody-forming cells per 10^6 spleen cells ([2]; 136.5 μg/mouse, i.v.)	Amount of antibody-forming cells per spleen ([2]; 136.5 μg/mouse, i.v.)	Spleen index ([2]; 136.5 μg/mouse, i.v.)	Immunogenic activity ([2]; 45.5 and 91 μg/mouse)	Effect on hemagglutinin titers ([2]; 136.5 μg/mouse, i.v.)	further results
CC/C=C\C/C=C\C/C=C\C/C=C\C/C=C\C/C=C\CCC(=O)N[C@@H](COP(=O)(O)O)C(=O)O [Compound 10, N-(cis-4,7,10,13,16,19-docosahexaenoyl)-O-phospho-L-serine]	326.2±65.4 cells per 10^6 spleen cells	34.7±8.5 × 10^3	304.9±46.6 cells per 10^6 spleen cells	30.2±5.7 × 10^3	+11.6 p > 0.05%	−3.5 p > 0.05%	+11.4 p > 005%	6.9 ± 0.2 10^−3	326.2±65.4 cells per 10^6 spleen cells	34.7±8.5 × 10^3	+19.4 p > 0.05%	+10.9 p > 0.05%	+11.4 p > 005%	6.6 ± 0.4 10^−3	651.6±48.2 cells per 10^6 spleen cells	81.1±5.8 × 10^3	6.7 ± 0.2 10^−3	no immunogenic activity	–	Amount of hemagglutinins ([2]; 136.5 μg/mouse, i.v., serum): 8.5±0.4 Log2 T
CC/C=C\C/C=C\C/C=C\C/C=C\C/C=C\CCCC(=O)N[C@@H](COP(=O)(O)O)C(=O)O [Compound 14, N-(cis-5,8,11,14,17-eicosapentaenoyl)-O-phospho-L-serine]	645.8±64.4 cells per 10^6 spleen cells	80.8±12.7 × 10^3	554.6±52.0 cells per 10^6 spleen cells	70.8±10.8 × 10^3	−10.9 p > 0.05%	−1.5 p > 0.05%	−9,7 p > 0.05%	6.5 ± 0.2 10^−3	645.8±64.4 cells per 10^6 spleen cells	80.8±12.7 × 10^3	+3.8 p > 0.05%	+12.4 p > 0.05%	−2,8 p > 0.05%	6.2 ± 0.2 10^−3	946.1±41.9 cells per 10^6 spleen cells	108.6±10.8 × 10^3	6.5 ± 0.3 10^−3	no immunogenic activity	0%	immunostimulating action ([2]; 136.5 μg/mouse): marked immunostimulating action
CC1=C(/C=C/C(C)=C/C=C/C(C)=C\C(=O)N[C@@H](COP(=O)(O)O)C(=O)O)C(C)(C)CCC1 (stereo in doubt) [Compound 2a, N-(13-cis-Retinoyl)-O-phospho-L-serine]	–	–	264.5±19.9 cells per 10^6 spleen cells	34.0±2.6 × 10^3	−12.8 p > 0.05%	−15.0 p > 0.05%	−7.7 p > 0.05%	6.4 ± 0.2 10^−3	585.6±51.6 cells per 10^6 spleen cells	59.4±5.2 × 10^3	–	–	−3.8 p > 0.05%	6.5 ± 0.2 10^−3	639.8±54.6 cells per 10^6 spleen cells	68.3±6.1 × 10^3	7.4 ± 0.4 10^−3	–	+5.1 p > 0.05%	relative amount of AFC ([1]; 45.5 μg/mouse i.v.): 264.5±19.9 cells per 10^6 spleen cells; total AFC amount ([1]; 45.5 μg/mouse i.v.): 34.0±2.6 × 10^3; Immunogenic activity ([2]; 45.5 μg/mouse): no immunogenic activity; immunostimulating effect in vivo in micelle form ([2]; 91 μg/mouse): display immunostimulating effect in vivo; immunostimulating action ([2]; 91 and 136.5 μg/mouse): marked immunostimulating action
